Data: US5198419A, “Formulated medicines for enhancing the efficacy of beta-lactam antibiotics in prophylaxis and treatment against infectious disease due to pathogenic bacteria” (Immuno Japan Inc., priority 1989, dated 1993)

What was measured:
[1] = test system: Staphylococcus aureus 209P; test: Example 9: time-schedule of lactoferrin administration and efficacy of amoxicillin; format: in vivo, mice, ddY
Method: (§1) For ED50 values, a range of amounts of antibiotics is given in the examples (e.g., penicillin G: 0.4, 0.2, 0.1, 0.05 mg/mouse). To calculate the ED50, groups of mice in the monotherapy groups and groups of mice in the combined therapy groups received the indicated amount of antibiotic (e.g., one group received 0.4 mg/mouse of penicillin G, one group received 0.2 mg/mouse of penicillin G, one group received 0.1 mg/mouse of penicillin G, one group received 0.05 mg/mouse of penicillin G).
The effect of time-schedule of lactoferrin administration on the potentiation of antibiotic efficacy was examined using an experimental model similar to Example 1. Male ddY mice (n=10), five weeks old, weighing an average of 21.9 g, were used in this experiment. On day 0 all the mice were intraperitoneally injected with 1.2×10^5 CFU/mouse of Staphylococcus aureus 209P. Amoxicillin ([…], 0.625 mg/mouse) was orally given one hour after the injection.

[2] = test system: Klebsiella pneumoniae strain 3K25; test: Example 3: experimental infection in mice, cefaclor with or without hololactoferrin; format: in vivo, strain ICR; conditions: p.o. 1 h after 1×10^6 CFU/mouse
Method: as §1
Sixty male mice, strain ICR, five weeks of age, weighing 21.3±1.5 g (mean±the standard deviation) were randomly allocated into ten groups (n=6), and intraperitoneally injected with Klebsiella pneumoniae strain 3K25, 1×10^6 CFU/mouse. One hour after the injection, the first group was orally given 0.2 ml of physiological saline, the second group orally given hololactoferrin (100% ferric ion saturated lactoferrin, 0.4 mg/mouse), the third through the sixth groups orally given cefaclor (2.0, 1.0, 0.5 and 0.25 mg/mouse each) in 0.2 ml of saline, and the seventh through the tenth groups orally given cefaclor (2.0, 1.0, 0.5 and 0.25 mg/mouse each) and hololactoferrin (100% iron saturated lactoferrin, 0.4 mg/mouse) in 0.2 ml of saline. The mice were fed ad libitum and observed for one week under the same conditions as described in Example 1.

[3] = test system: Klebsiella pneumoniae 3K25; test: Example 7: experimental infection in mice, cefaclor with or without native lactoferrin; format: in vivo, strain ddY; conditions: Klebsiella pneumoniae, 3K25, po, 168 h, 1.5 × 10^6 CFU/mouse
[4] = test system: bacteria in urine; test: Example 11: patients with chronic urinary tract infection, cefaclor with or without apolactoferrin; format: in vivo, human patients; conditions: four weeks
Method: Seventeen patients (male 6, female 11, an average 63.5 years old) with chronic urinary tract infection were randomly allocated into two groups. All these patients excreted at least one species of bacteria in their urine for longer than four weeks, although they were treated orally with antibacterial agents. The first group (n=9) was treated for four weeks with 1,200 mg of cefaclor (400 mg, three times a day) and the second group (n=8) with the same dose of cefaclor (three times a day) combined with 600 mg of apolactoferrin (200 mg, three times a day). Urine specimens were collected every one week and the species of bacteria were identified and the quantity of excreted bacteria determined.

[5] = test system: Str. epidermids FT; test: Example 10: experimental infection in mice, cefazolin with or without lactoferrin; format: in vivo; conditions: for ED50: 1000 MLD i.p.
Method: as §1
(§2) The potentiation of antibiotic efficacy by lactoferrin was examined using an infection model similar to Example 1. The antibiotics and lactoferrin were administered immediately after the injection (see Table 8). […] Lactoferrin (0.4 mg/mouse) potentiates the efficacies of the four beta-lactam antibiotics used: penicillin G against Streptococcus pyogenes infection was potentiated by 4.6 fold, cefazolin against S. epidermidis by 3.1 fold, methicillin against Diplococcus pneumoniae by 3.7 fold, and cloxacillin against Pseudomonas aeruginosa by 3.0 fold. Therefore, lactoferrin potentiates the efficacy of beta-lactam antibiotics against diseases caused by both gram-positive and gram-negative pathogenic bacteria.

[6] = test system: Klebsiella pneumoniae strain 3K25; test: Example 1: experimental infection in mice, cefpodoxime with or without native lactoferrin; format: in vivo, strain ICR
Method: as §1
Sixty male mice, strain ICR, four weeks of age, body weight 19±1.0 g (mean±the standard deviation) were randomly divided into ten groups (n=6); the first group was assigned to the untreated control, the second group to the lactoferrin treated control group, the third through the sixth groups to the cephalosporin treated controls, and the seventh through the tenth groups to the combined treatment group of cephalosporin and lactoferrin. The mice were intraperitoneally injected with pneumobacillus, Klebsiella pneumoniae strain 3K25, 5×10^6 colony forming units (CFU) per mouse. The antibiotics used were orally active cephalosporin or cefpodoxime, and the bovine lactoferrin was the native one derived from cheese whey with 28.5% iron-saturation. One hour after the injection, the untreated control was orally given 0.2 ml of physiological saline, the second group orally given lactoferrin (0.4 mg/mouse), the third through the sixth groups were orally given cefpodoxime (10, 5, 2.5 and 1.25 mg/mouse) in 0.2 ml of physiological saline, the seventh through the tenth groups orally given the admixture of cefpodoxime (5, 2.5, 1.25, and 0.625 mg/mouse) together with lactoferrin (0.4 mg/mouse) in 0.2 ml of the saline. All the mice were housed in an animal room, allowed free access to commercial pellet diet and water, and observed for one week.

[7] = test system: Klebsiella pneumoniae strain 3K25; test: Example 2: experimental infection in mice, cefpodoxime with or without apolactoferrin; format: in vivo, strain ICR; conditions: for ED50: p.o. 1 h after 5×10^5 CFU/mouse
Method: as §1
Sixty male mice, strain ICR, five weeks of age, weighing 19.3±1.1 g (mean body weight±the standard deviation) were randomly allocated into ten groups (n=6), and intraperitoneally injected with pneumobacilli, Klebsiella pneumoniae strain 3K25, 5×10^5 CFU/mouse. One hour after the injection, the first group was orally given 0.2 ml of physiological saline, the second group orally given iron free apolactoferrin (0.4 mg) in 0.2 ml of saline, the third through the sixth groups were orally given cefpodoxime (4, 2, 1, and 0.5 mg/mouse) in 0.2 ml saline, and the seventh through the tenth groups orally given the admixture of cefpodoxime (4, 2, 1, and 0.5 mg/mouse) and apolactoferrin (0.4 mg) in 0.2 ml of saline. Mice were fed ad libitum and observed for a week under the same conditions as described in Example 1.

[8] = test system: Klebsiella pneumoniae strain 3K25; test: Example 5: experimentally infected fed and fasted mice, cefpodoxime with or without native lactoferrin; format: in vivo, strain ICR
Method: as §1
Male mice, strain ICR, five weeks old, weighing an average of 21.6 g, were randomly allocated into sixteen groups (n =6). During the next 24 hours, eight groups were allowed free access to diet and water, while the other eight groups were fasted overnight. On the next day, all the mice were injected with 1.4×10^6 CFU/mouse of Klebsiella pneumoniae strain 3K25. The minimal lethal dose of this bacterium is […], and thus the injected dose was 1,000 times greater than the minimal lethal dose. Immediately after the injection, the fed groups were orally given cefpodoxime (10, 5, 2.5, and 1.25 mg/mouse) simultaneously with or without native lactoferrin (0.2 mg/mouse). The fasted groups also were orally given cefpodoxime (10, 5, 2.5, and 1.25 mg/mouse) simultaneously with or without native lactoferrin (0.2 mg/mouse).

[9] = test system: Klebsiella pneumoniae strain 3K25; test: Example 8: dose-response relationship of potentiation of cefpodoxime efficacy by oral lactoferrin; format: in vivo, mice, ddY
Method: as §1
The dose-response relationship of the potentiation of the antibiotic efficacy by lactoferrin was determined using the same experimental infection system as described in Example 1. Male ddY mice, five weeks of age, weighing approximate 20.3 g, were randomly allocated into groups (n=10); the first group was assigned to the cefpodoxime control (5 mg/mouse). The mice were intraperitoneally injected with pneumobacillus, Klebsiella pneumoniae strain 3K25, 3×10^5 per mouse. One hour after the injection, the antibiotic cefpodoxime (1, 0.5, 0.25 and 0.125 mg/mouse) was orally given in 0.2 ml of physiological saline.

[10] = test system: Escherichia coli #11; test: Example 7: experimental infection in mice, cephalexin with or without native lactoferrin; format: in vivo, strain ddY; conditions: po, 168 h, 1.7 × 10^6 CFU/mouse
Method: as §1
Male mice, strain ddY, five weeks old, were randomly allocated into groups (n=10), and were intraperitoneally injected with Proteus mirabilis GN79 (1.3×10^6 CFU/mouse) or with Escherichia coli #11 (1.7×10^6 CFU/mouse) or with Klebsiella pneumoniae 3K25 (1.5×10^6 CFU/mouse). The doses are 1,000 times greater than the minimum lethal dose. Immediately after the injection, the first eight groups were orally given ampicillin, the second eight groups were orally given cephalexin, and the third eight groups were orally given cefaclor, respectively, each simultaneously with or without native lactoferrin (1 mg/mouse) in 0.2 ml of distilled water (see Table 7). All the mice were fed ad libitum and observed for one week under the same conditions as described in Example 1.

[11] = test system: Pseudomonas aeruginosa E8; test: Example 10: experimental infection in mice, cloxacillin with or without lactoferrin; format: in vivo; conditions: for ED50: 10 MLD i.p.
Method: as §1, §2

[12] = test system: Diplococcus pneumoniae Ch; test: Example 10: experimental infection in mice, methicillin with or without lactoferrin; format: in vivo; conditions: for ED50: 100 MLD i.p.
Method: as §1, §2

[13] = test system: Streptococcus pyogenes #59; test: Example 10: experimental infection in mice, penicillin G with or without lactoferrin; format: in vivo; conditions: for ED50: 1000 MLD i.p.
Method: as §1, §2

[14] = cefazolin with lactoferrin (0.4 mg/mouse)
[15] = cloxacillin with lactoferrin (0.4 mg/mouse)
[16] = methicillin with lactoferrin (0.4 mg/mouse)
[17] = penicillin G with lactoferrin (0.4 mg/mouse)

CC1(C)S[C@@H]2[C@H](NC(=O)[C@H](N)c3ccc(O)cc3)C(=O)N2[C@H]1C(=O)O [amoxicillin]
ED50 ([1]; amoxicillin control, no lactoferrin): 2.46 mg/mouse | ED50 ([1]; amoxicillin, lactoferrin (0.5 mg/mouse) dosed +3 (hr)): 0.78 mg/mouse | ED50 ([1]; amoxicillin, lactoferrin (0.5 mg/mouse) dosed +12 (hr)): 2.48 mg/mouse | ED50 ([1]; amoxicillin, lactoferrin (0.5 mg/mouse) dosed -1 (day)): 1.39 mg/mouse | ED50 ([1]; amoxicillin, lactoferrin (0.5 mg/mouse) dosed -2 (day)): 2.46 mg/mouse | ED50 ([1]; amoxicillin, lactoferrin (0.5 mg/mouse) dosed -3 (day)): 2.46 mg/mouse | ED50 ([1]; amoxicillin, lactoferrin (0.5 mg/mouse) dosed -5 (day)): 2.14 mg/mouse | ED50 ([1]; amoxicillin, lactoferrin (0.5 mg/mouse) dosed -6 (hr)): 0.40 mg/mouse | ED50 ([1]; amoxicillin, lactoferrin (0.5 mg/mouse) dosed -12 (hr)): 0.55 mg/mouse | ED50 ([1]; amoxicillin, lactoferrin (0.5 mg/mouse) dosed at 0): 0.40 mg/mouse

N[C@@H](C(=O)N[C@@H]1C(=O)N2C(C(=O)O)=C(Cl)CS[C@H]12)c1ccccc1 [cefaclor]
ED50 ([2]; cefaclor combined therapy with hololactoferrin (0.4 mg/mouse)): 0.30 mg/mouse | ED50 ([2]; cefaclor monotherapy): 0.63 mg/mouse | ED50 ([3]; cefaclor alone): 28.5 mg/kg | ED50 ([3]; cefaclor with lactoferrin (1 mg/mouse)): 10 mg/kg | bacteria in the urine ([4]; cefaclor 1,200 mg combined with 600 mg apolactoferrin daily): bacteria were no longer detected in the urine | patients still excreting bacteria ([4]; cefaclor monotherapy 1,200 mg daily): six patients out of nine | efficacy of combined therapy versus monotherapy ([4]; cefaclor with apolactoferrin): significantly more effective

Cc1nnc(SCC2=C(C(=O)O)N3C(=O)[C@@H](NC(=O)Cn4cnnn4)[C@H]3SC2)s1 [cefazolin]
ED50 ([5]; cefazolin control): 0.152 mg/mouse | potentiation of efficacy by lactoferrin [5, 14]: 3.1 fold | ED50 [5, 14]: 0.048 mg/mouse

COCC1=C(C(=O)O)N2C(=O)[C@@H](NC(=O)/C(=N\OC)c3csc(N)n3)[C@H]2SC1 [cefpodoxime]
ED50 ([6]; cefpodoxime alone, p.o. 1 h after i.p. injection of 5×10^6 CFU/mouse, 95% range not named (6.3-10.0 mg/mouse printed)): 7.93 mg/mouse | life span versus untreated and lactoferrin controls ([6]; cefpodoxime treated group): significantly prolonged | ED50 ([6]; cefpodoxime with native lactoferrin (0.4 mg/mouse), p.o. 1 h after injection of 5×10^6 CFU/mouse, range 0.92-1.70 mg/mouse printed): 1.25 mg/mouse | life span versus untreated and lactoferrin controls ([6]; combined treatment groups of cefpodoxime and lactoferrin): significantly prolonged | ED50 ([7]; cefpodoxime combined therapy with apolactoferrin (0.4 mg), range 0.19-0.33 mg printed): 0.25 mg/mouse | ED50 ([7]; cefpodoxime monotherapy, range 0.74-1.32 mg/mouse printed): 0.99 mg/mouse | recovery of mice ([7]; cefpodoxime with apolactoferrin, combined therapy group): all the mice recovered | ED50 ([8]; fasted, cefpodoxime (antibiotic) alone): 39.40 (27.15-56.15) mg/mouse | ED50 ([8]; fasted, cefpodoxime admixture with lactoferrin (0.2 mg/mouse)): 7.80 (5.65-10.83) mg/mouse | ED50 ([8]; fed, cefpodoxime (antibiotic) alone): 15.65 (11.45-21.30) mg/mouse | ED50 ([8]; fed, cefpodoxime admixture with lactoferrin (0.2 mg/mouse)): 4.90 (3.65-6.60) mg/mouse | ED50 ([9]; cefpodoxime with lactoferrin 0.00 mg/mouse): 0.473 mg/mouse | ED50 ([9]; cefpodoxime with lactoferrin 0.005 mg/mouse): 0.382 mg/mouse | ED50 ([9]; cefpodoxime with lactoferrin 0.05 mg/mouse): 0.104 mg/mouse | ED50 ([9]; cefpodoxime with lactoferrin 0.5 mg/mouse): 0.104 mg/mouse | ED50 ([9]; cefpodoxime with lactoferrin 5.0 mg/mouse): 0.104 mg/mouse | ED50 ([9]; cefpodoxime with lactoferrin 50.0 mg/mouse): 0.104 mg/mouse

CC1=C(C(=O)O)N2C(=O)[C@@H](NC(=O)[C@H](N)c3ccccc3)[C@H]2SC1 [cephalexin]
ED50 ([10]; cephalexin alone): 216 mg/kg | ED50 ([10]; cephalexin with lactoferrin (1 mg/mouse)): 34.8 mg/kg

Cc1onc(-c2ccccc2Cl)c1C(=O)N[C@@H]1C(=O)N2[C@@H]1SC(C)(C)[C@@H]2C(=O)O [cloxacillin]
ED50 ([11]; cloxacillin control): 3.16 mg/mouse | potentiation of efficacy by lactoferrin [11, 15]: 3.0 fold | ED50 [11, 15]: 1.06 mg/mouse

COc1cccc(OC)c1C(=O)N[C@@H]1C(=O)N2[C@@H]1SC(C)(C)[C@@H]2C(=O)O [methicillin]
ED50 ([12]; methicillin control): 0.227 mg/mouse | potentiation of efficacy by lactoferrin [12, 16]: 3.7 fold | ED50 [12, 16]: 0.061 mg/mouse

CC1(C)S[C@@H]2[C@H](NC(=O)Cc3ccccc3)C(=O)N2[C@H]1C(=O)O [penicillin G]
ED50 ([13]; penicillin G control): 0.106 mg/mouse | potentiation of efficacy by lactoferrin [13, 17]: 4.6 fold | ED50 [13, 17]: 0.023 mg/mouse
